In ChEMBL document CHEMBL4665653, “VU6005806/AZN-00016130, an advanced M positive allosteric modulator (PAM) profiled as a potential preclinical development candidate” (Bioorg Med Chem Lett, 2019):
In brackets after ≈: the same amount, converted by molar mass. Activity calls are given as the source filed them. The calls are words filed in the database; no cut-off is given here.

Tests used:
[1] = Positive allosteric modulation of dog M4 receptor; design: species or system Canis lupus familiaris
[2] = target: Muscarinic acetylcholine receptor M5 (Homo sapiens, UniProt P08912); assay: Positive allosteric modulation of human M5 receptor
Sequence of Muscarinic acetylcholine receptor M5 (P08912 whole entry): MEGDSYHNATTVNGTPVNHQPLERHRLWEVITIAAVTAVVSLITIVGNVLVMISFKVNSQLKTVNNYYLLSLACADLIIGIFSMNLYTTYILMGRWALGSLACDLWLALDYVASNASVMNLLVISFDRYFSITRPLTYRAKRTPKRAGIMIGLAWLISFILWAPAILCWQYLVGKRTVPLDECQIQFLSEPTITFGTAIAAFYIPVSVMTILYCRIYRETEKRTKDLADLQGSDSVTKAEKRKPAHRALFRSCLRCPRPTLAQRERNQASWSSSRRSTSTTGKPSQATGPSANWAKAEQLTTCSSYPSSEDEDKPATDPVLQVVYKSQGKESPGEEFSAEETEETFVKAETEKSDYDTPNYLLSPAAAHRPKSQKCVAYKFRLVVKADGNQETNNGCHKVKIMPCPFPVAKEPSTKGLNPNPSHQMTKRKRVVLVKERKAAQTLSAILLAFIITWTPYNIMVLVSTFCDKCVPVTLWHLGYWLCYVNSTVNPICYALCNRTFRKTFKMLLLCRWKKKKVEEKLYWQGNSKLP

[3] = target: Sodium-dependent noradrenaline transporter (Homo sapiens) (UniProt P23975); assay: Displacement of [125I]RTI-55 from full length recombinant human NET expressed in MDCK cells assessed as residual binding level for radioligand at 10 uM after 180 mins by radiometric scintillation analysis relative to control; assay type: cell-based
[4] = Brain to plasma permeability coefficient, Kp in Sprague-Dawley rat at 0.1 to 0.2 mg/kg, iv measured after 0.25 hrs; assay type: ADME, organism-based; conditions: dose 0.1-0.2 mg/kg
[5] = target: Epidermal growth factor receptor (Homo sapiens) (UniProt P00533); assay: Displacement of [125I]-EGF from human EGF receptor expressed in A-431 cells assessed as residual binding level for radioligand at 10 uM incubated for 60 mins by radiometric scintillation analysis relative to control; assay type: cell-based
Sequence of Epidermal growth factor receptor (Homo sapiens) (P00533 whole entry): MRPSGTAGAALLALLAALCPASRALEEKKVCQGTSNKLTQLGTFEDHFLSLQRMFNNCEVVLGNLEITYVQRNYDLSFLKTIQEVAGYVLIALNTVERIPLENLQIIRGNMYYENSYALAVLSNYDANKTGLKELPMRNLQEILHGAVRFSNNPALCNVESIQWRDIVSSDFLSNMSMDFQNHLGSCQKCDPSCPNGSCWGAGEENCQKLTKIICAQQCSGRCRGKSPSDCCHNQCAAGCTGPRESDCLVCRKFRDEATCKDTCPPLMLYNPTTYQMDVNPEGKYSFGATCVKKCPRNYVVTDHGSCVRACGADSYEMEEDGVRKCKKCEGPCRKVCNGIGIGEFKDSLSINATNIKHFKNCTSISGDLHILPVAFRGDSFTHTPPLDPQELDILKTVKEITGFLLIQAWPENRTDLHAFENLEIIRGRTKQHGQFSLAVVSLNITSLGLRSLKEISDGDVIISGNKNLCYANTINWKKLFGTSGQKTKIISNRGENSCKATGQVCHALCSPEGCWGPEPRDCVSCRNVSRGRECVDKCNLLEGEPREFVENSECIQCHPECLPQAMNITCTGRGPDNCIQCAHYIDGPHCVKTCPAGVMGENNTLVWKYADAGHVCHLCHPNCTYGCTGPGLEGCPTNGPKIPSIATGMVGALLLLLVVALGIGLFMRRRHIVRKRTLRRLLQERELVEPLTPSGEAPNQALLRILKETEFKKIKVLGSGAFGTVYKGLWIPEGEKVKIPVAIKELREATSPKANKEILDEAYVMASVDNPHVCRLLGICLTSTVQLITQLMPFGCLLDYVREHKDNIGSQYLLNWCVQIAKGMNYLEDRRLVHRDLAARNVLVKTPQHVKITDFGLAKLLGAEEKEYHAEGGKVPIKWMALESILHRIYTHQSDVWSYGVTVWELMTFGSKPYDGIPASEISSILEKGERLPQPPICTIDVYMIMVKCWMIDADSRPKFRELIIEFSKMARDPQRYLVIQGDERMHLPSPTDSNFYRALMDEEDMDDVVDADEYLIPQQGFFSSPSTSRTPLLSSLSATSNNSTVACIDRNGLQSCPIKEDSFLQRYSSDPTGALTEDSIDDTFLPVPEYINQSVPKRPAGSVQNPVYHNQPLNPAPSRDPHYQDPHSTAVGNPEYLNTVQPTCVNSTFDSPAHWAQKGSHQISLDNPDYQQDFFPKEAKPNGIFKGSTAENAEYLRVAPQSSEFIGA

[6] = target: Acetylcholine receptor subunit alpha (Homo sapiens) (UniProt P02708); assay: Displacement of [125I]-alpha-Bungarotoxin from full length nAChR alpha1 receptor in human RD cell membranes assessed as residual binding level for radioligand at 10 uM measured after 120 mins by radiometric scintillation analysis relative to control
[7] = Hepatic clearance in rat; assay type: ADME; conditions: in vivo
[8] = Half life in rat; assay type: ADME; conditions: in vivo
Mus musculus = assay: Reversal of amphetamine-induced hyperlocomotion in C57BL/6 mouse at 0.1 to 10 mg/kg, po pretreated for 30 mins after habituation in chamber followed by amphetamine challenge and measured after 1 hr; assay type: functional, organism-based; conditions: dose mg/kg 0.1-10, time 30.0 min
[9] = target: Cannabinoid receptor 1 (Homo sapiens) (UniProt P21554); assay: Displacement of [3H]-SR141716A from human recombinant full length Cannabinoid CB1 receptor expressed in Chem-1 cells assessed as residual binding level for radioligand at 10 uM incubated for 60 mins by radiometric scintillation analysis relative to control; assay type: cell-based
P-gp = assay: Substrate activity at human P-gp expressed in MDCK-MDR1 cells assessed as efflux ratio; assay type: ADME, cell-based
[10] = Unbound brain-to-plasma concentration ratio in cynomolgus monkey; assay type: ADME, Macaca fascicularis; conditions: read-out: K(p,uu,brain)
[11] = target: Beta-2 adrenergic receptor (Homo sapiens) (UniProt P07550); assay: Displacement of [3H]-(-)CGP 12177 from recombinant full length human adrenergic beta 2 receptor expressed in CHO-hNBR1 cells assessed as residual binding level for radioligand at 10 uM incubated for 60 mins by radiometric scintillation analysis relative to control; assay type: cell-based
Sequence of Beta-2 adrenergic receptor (Homo sapiens) (P07550 whole entry, looked up): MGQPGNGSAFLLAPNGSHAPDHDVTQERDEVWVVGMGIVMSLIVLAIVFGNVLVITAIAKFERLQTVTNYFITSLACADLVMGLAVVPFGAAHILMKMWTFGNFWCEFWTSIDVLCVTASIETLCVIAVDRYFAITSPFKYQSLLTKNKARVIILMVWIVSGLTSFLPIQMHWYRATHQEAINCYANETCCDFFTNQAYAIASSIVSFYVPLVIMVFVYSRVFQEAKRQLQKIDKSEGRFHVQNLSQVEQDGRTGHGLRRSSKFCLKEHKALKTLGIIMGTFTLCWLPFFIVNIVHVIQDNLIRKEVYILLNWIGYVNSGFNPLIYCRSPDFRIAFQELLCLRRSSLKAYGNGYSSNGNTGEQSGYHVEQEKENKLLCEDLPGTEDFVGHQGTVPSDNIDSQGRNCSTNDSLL

Cytochrome P450 2C9 = Cytochrome P450 2C9 (Homo sapiens, UniProt P11712); assay: Inhibition of CYP2C9 (unknown origin); assay type: ADME
[12] = target: Muscarinic acetylcholine receptor M4 (Rattus norvegicus) (UniProt P08485); assay: Positive allosteric modulation of rat M4 receptor relative to acetylcholine; conditions: filed as positive allosteric modulator
[13] = Plasma clearance in cynomolgus monkey; assay type: ADME, Macaca fascicularis; conditions: read-out: CL(app)
[14] = target: Estrogen receptor (Homo sapiens) (UniProt P03372); assay: Displacement of [3H]estradiol from recombinant full length human recombinant ERalpha receptor expressed in Sf9 insect cells assessed as residual binding level for radioligand at 10 uM measured after 120 mins by radiometric scintillation analysis relative to contro
[15] = target: Adenosine receptor A1 (Homo sapiens) (UniProt P30542); assay: Displacement of [3H]DPCPX from recombinant full length human adenosine A1 receptor expressed in CHO-K1 cells assessed as residual binding level for radioligand at 10 uM incubated for 90 mins radiometric scintillation analysis relative to control; assay type: cell-based
Sequence of Adenosine receptor A1 (Homo sapiens) (P30542 whole entry): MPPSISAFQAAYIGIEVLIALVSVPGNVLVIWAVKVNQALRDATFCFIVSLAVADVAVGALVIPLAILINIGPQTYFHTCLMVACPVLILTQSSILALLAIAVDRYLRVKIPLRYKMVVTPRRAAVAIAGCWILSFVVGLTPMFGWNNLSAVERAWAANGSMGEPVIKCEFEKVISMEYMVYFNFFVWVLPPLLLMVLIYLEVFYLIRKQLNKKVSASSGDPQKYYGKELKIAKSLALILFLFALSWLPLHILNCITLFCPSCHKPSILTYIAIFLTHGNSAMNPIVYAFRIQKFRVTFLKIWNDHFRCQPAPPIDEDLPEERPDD

[16] = Solubility of the compound in FaSSIF; assay type: physicochemical
[17] = Plasma clearance in rat; assay type: ADME; conditions: read-out: CL(app)
[18] = target: Cysteinyl leukotriene receptor 1 (Homo sapiens) (UniProt Q9Y271); assay: Displacement of [3H]LTD4 from full length recombinant human CysLT1 Leukotriene receptor expressed in CHO-K1 cells assessed as residual binding level for radioligand at 10 uM incubated for 30 mins radiometric scintillation analysis relative to control; assay type: cell-based
[19] = Volume of distribution at steady state in rat; assay type: ADME; conditions: in vivo, read-out: Vdss
[20] = target: Muscarinic acetylcholine receptor M1 (Homo sapiens, UniProt P11229); assay: Positive allosteric modulation of human M1 receptor
HIT-T15 = assay: Displacement of [3H]glyburide from KATP receptor in HIT-T15 Syrian hamster pancreatic B cell membranes assessed as residual binding level for radioligand at 10 uM after 120 mins by radiometric scintillation analysis relative to control; assay type: tissue-based; conditions: Mesocricetus auratus
Rattus norvegicus [21] = species: Rattus norvegicus; assay: Displacement of [3H]-Flunitrazepam from Wistar rat brain GABA(A)/BzR site assessed as residual binding level for radioligand at 10 uM measured after 60 mins by scintillation counting method relative to control; assay type: tissue-based
[22] = Solubility of the compound in simulated gastric fluid; assay type: physicochemical
[23] = target: Interleukin-1 receptor type 1 (Homo sapiens) (UniProt P14778); assay: Displacement of [125I]-Interleukin 1beta from human interleukin IL-1 R1 receptor assessed as residual binding level for radioligand at 10 uM incubated for 1200 mins by scintillation counting analysis relative to control
Sequence of Interleukin-1 receptor type 1 (Homo sapiens) (P14778 whole entry): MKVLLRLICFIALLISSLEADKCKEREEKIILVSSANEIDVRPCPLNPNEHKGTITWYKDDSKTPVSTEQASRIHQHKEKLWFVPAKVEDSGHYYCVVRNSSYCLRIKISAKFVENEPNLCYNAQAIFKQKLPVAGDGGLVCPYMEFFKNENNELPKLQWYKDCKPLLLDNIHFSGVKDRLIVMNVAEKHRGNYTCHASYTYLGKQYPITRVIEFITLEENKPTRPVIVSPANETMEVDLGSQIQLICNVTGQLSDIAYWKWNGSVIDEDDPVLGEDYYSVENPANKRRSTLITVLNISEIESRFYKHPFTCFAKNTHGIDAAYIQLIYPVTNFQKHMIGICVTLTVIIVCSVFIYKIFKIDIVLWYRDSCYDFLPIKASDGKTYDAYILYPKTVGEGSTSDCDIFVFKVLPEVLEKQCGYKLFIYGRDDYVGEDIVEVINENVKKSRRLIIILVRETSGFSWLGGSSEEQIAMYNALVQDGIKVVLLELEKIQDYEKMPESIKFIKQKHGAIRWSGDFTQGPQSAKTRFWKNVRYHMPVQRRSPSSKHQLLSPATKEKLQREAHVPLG

[24] = target: Neuronal acetylcholine receptor; alpha3/beta4 (Homo sapiens) (UniProt P30926+P32297); assay: Displacement of [125I] epibatidine from human nicotinic acetylcholine receptor alpha3/beta4 assessed as residual binding level for radioligand at 10 uM incubated for 60 mins by scintillation counting analysis relative to control; assay type: protein-complex assay
Rattus norvegicus [25] = species: Rattus norvegicus; assay: Displacement of [3H]GABA from GABA receptor in Wistar rat brain assessed as residual binding level for radioligand at 10 uM after 20 mins by radiometric scintillation analysis relative to control; assay type: tissue-based
[26] = target: Alpha-2A adrenergic receptor (Homo sapiens) (UniProt P08913); assay: Displacement of [3H][…] from recombinant full length human adrenergic alpha 2A receptor expressed in CHO-K1 cells assessed as residual binding level for radioligand at 10 uM incubated for 60 mins by radiometric scintillation analysis relative to control; assay type: cell-based
[27] = Half life in dog; assay type: ADME, Canis lupus familiaris; conditions: in vivo
[28] = Solubility of the compound pH 7.5; assay type: physicochemical; conditions: buffer
[29] = target: Glucocorticoid receptor (Homo sapiens) (UniProt P04150); assay: Displacement of [3H]Dexamethasone from recombinant full length human glucocorticoid receptor expressed in insect cells assessed as residual binding level for radioligand at 10 uM incubated for 1440 mins by scintillation counting analysis relative to control
Sequence of Glucocorticoid receptor (Homo sapiens) (P04150 whole entry): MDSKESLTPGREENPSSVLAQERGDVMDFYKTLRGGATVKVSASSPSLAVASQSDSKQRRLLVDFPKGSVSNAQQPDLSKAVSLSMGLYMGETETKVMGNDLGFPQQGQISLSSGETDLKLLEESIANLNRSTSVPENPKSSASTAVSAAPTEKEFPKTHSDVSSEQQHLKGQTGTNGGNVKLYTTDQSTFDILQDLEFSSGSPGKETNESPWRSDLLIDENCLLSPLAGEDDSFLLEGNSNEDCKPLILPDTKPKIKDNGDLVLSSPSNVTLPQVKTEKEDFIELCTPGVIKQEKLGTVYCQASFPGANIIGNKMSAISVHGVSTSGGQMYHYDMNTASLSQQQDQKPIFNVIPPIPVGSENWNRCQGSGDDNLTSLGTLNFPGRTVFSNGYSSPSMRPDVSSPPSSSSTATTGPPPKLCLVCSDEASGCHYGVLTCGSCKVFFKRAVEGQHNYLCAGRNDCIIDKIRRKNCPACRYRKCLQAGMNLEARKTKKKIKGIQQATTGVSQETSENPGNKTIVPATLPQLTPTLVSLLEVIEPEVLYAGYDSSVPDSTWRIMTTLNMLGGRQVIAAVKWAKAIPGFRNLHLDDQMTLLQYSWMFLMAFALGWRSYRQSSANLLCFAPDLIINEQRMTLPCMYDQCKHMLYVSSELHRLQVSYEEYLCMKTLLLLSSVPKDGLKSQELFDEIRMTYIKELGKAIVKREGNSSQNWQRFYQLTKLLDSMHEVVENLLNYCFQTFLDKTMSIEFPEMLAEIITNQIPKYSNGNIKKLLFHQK

[30] = target: 5-hydroxytryptamine receptor 2B (Homo sapiens) (UniProt P41595); assay: Displacement of [3H]-LSD from recombinant full length human 5HT2B receptor expressed in CHO-K1 cells assessed as residual binding level for radioligand at 10 uM incubated for 60 mins by; assay type: cell-based
Sequence of 5-hydroxytryptamine receptor 2B (Homo sapiens) (P41595 whole entry): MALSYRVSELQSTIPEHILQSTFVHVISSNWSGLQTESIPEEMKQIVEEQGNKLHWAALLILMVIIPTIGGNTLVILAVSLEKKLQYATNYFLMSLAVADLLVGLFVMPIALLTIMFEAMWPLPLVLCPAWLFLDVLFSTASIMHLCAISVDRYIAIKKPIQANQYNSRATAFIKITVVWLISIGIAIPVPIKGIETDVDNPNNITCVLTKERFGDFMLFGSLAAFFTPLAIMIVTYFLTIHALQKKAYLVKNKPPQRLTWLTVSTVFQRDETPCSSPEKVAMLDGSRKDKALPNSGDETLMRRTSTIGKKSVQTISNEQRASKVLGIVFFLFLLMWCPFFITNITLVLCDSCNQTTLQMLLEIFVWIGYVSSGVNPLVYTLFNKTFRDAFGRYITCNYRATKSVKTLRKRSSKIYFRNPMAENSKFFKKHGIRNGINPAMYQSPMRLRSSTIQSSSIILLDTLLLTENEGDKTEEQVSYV

Rattus norvegicus [31] = species: Rattus norvegicus; assay: Displacement of [3H]-idazoxan from imidazoline I2 receptor in Wistar rat brain assessed as residual binding level for radioligand at 10 uM incubated for 30 mins by scintillation counting analysis relative to control; assay type: tissue-based
[32] = target: Mu-type opioid receptor (Homo sapiens) (UniProt P35372); assay: Displacement of [3H]-Diprenorphine from recombinant full length human mu opioid receptor expressed in CHO-K1 cells assessed as residual binding level for radioligand at 10 uM incubated for 60 mins by scintillation counting analysis relative to control; assay type: cell-based
Sequence of Mu-type opioid receptor (Homo sapiens) (P35372 whole entry): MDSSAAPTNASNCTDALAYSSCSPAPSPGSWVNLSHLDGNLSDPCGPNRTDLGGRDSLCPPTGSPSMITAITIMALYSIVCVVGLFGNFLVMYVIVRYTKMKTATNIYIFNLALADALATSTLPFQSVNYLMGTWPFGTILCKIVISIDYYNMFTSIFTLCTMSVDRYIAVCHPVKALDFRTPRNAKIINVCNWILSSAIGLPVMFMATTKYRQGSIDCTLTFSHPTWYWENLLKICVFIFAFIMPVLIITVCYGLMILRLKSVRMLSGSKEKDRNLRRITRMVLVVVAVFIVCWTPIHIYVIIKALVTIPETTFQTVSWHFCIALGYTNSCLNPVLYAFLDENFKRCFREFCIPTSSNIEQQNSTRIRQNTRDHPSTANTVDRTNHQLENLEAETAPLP

SMILES: COc1nnc2sc(C(=O)NC3CN(c4ncc(C(F)(F)F)cn4)C3)c(N)c2c1C
- EC50 [1]: 0.087 µM
- EC50 [2]: > 30 µM
- Activity [3]: > 50%
- Kp at 0.25 h [4]: 0.34
- Activity [5]: > 50%
- Activity [6]: > 50%
- CLH [7]: 30.5 mL/min/kg
- half-life [8]: 2.8 h
- Activity (Mus musculus): Active
- Activity [9]: > 50%
- efflux ratio (P-gp): 1.6
- Kp uu [10]: 1.5
- Activity [11]: > 50%
- IC50 (Cytochrome P450 2C9): > 30 µM
- %max [12]: 93%
- clearance [13]: 16 mL/min/kg
- Activity [14]: > 50%
- Activity [15]: > 50%
- solubility [16]: 18 µM (≈ 7.91 µg/mL)
- clearance [17]: 7.7 mL/min/kg
- Activity [18]: > 50%
- Vd [19]: 1.81 L/kg
- EC50 [20]: > 30 µM
- Activity (HIT-T15): > 50%
- Activity (Rattus norvegicus [21]): > 50%
- solubility [22]: 15 µM (≈ 6.59 µg/mL)
- Activity [23]: > 50%
- Activity [24]: > 50%
- Activity (Rattus norvegicus [25]): > 50%
- Activity [26]: > 50%
- half-life [27]: 1 h
- solubility [28]: 2.9 µM (≈ 1.27 µg/mL)
- Activity [29]: > 50%
- Activity [30]: > 50%
- Activity (Rattus norvegicus [31]): > 50%
- Activity [32]: > 50%
